Reference: paper PMC11931052, “Efficacy of dispirotripiperazine PDSTP in a golden Syrian hamster model of SARS-CoV-2 infection” (Frontiers in Microbiology, 2025)

How the values were obtained:
[1] = Cytotoxicity (MTT test) in Vero E6 cell line; assay type: cell-based, African Green Monkey (Cercopithecus aethiops); details: African green monkey, mean ± SD, three independent experiments
Description: (§1) The microtetrazolium test (MTT test) was used to study the cytotoxicity of the compounds. Vero cells were seeded in 96-well plates at an initial density of 3×10^5 cells/mL, in Gibco Dulbecco’s Modified Eagle Medium supplemented with L-glutamine and 25 mg/L kanamycin, and 10 % fetal bovine serum (FBS) (DMEM, Thermo Fisher Scientific, Waltham, MA USA). Cell cultures were then incubated at 37 °C in a 5 % CO2 atmosphere, in the absence or presence of serial dilutions of test compounds. The test medium used for the cytotoxic assay as well as for the antiviral assay contained 1 % of the appropriate serum. Cell viability was determined after 72 h at 37 °C by the MTT method as previously reported. The cell viability was expressed as a percentage of the control. The 50% cytotoxic concentration (CC50) of each compound was defined as the concentration of the compound that reduced the absorbance (OD570) of the treated cells to 50% when compared with that of untreated cells. CC50 mean values were calculated from at least three independent experiments.

HCoV-229E = assay: Plaque reduction assay, HCoV-229E in Vero E6 cells; assay type: cell-based; details: Human coronavirus 229E, Vero C1008, Vero E6, mean ± SD, read-out: Antiviral activity IC50 against coronaviruses, HCoV-229E, PR
Description: (§2) Vero E6 cells were incubated in the presence of PDSTP and reference compounds (100.0, 20.0, 4.0, and 0.8 μM concentrations) for 1 h at 37°C in a 5% CO2 and then infected for 1 h with 250 μL of the corresponding virus (SARS-CoV-2 PV10734 or HCoV-229E) dilutions to obtain 50–100 PFU/well. The plates were then incubated for 1 h at 37°C in a 5% CO2 atmosphere. Following the removal of the unabsorbed virus, 400 μL of the medium (D-MEM with L-glutamine, 4,500 mg/L D-glucose, and 1% inactivated FBS) containing 0.75% methyl-cellulose (M0512, viscosity 4,000 cP, Sigma-Aldrich, United States) and the serial dilutions of the compounds were added and incubated for 4 (SARS-CoV-2) or 2 (HCoV-229E) days at 37°C in a 5% CO2 atmosphere. Subsequently, the cells were fixed and stained with a 0.2% crystal violet solution (V5265, Sigma-Aldrich, United States) and then the number of plaques was calculated. The degree of cell growth/viability and viral multiplication at each drug concentration tested was expressed as a percentage of the untreated control. Concentrations resulting in 50% inhibition (CC50 or EC50) were determined using linear regression analysis.

[2] = tested on: SARS-CoV-2 clinical isolate VR PV10734; assay: Plaque reduction assay, SARS-CoV-2 VR PV10734 in Vero E6 cells; assay type: cell-based; details: Severe acute respiratory syndrome coronavirus 2, Vero C1008, mean ± SD, read-out: Antiviral activity IC50 against coronaviruses, SARS-CoV-2 clinical isolate VR PV10734, PR
Description: as §2

[3] = tested on: SARS-CoV-2 clinical isolate 35245; assay: Microtetrazolium (MTT) test, SARS-CoV-2 35245; assay type: cell-based; details: Severe acute respiratory syndrome coronavirus 2, read-out: Antiviral activity IC50 against coronaviruses, SARS-CoV-2 clinical isolate 35245, MTT
Description: The compound’s activity against OC43 and SARS-CoV-235245 was based on the inhibition of virus-induced cytopathogenicity in acutely infected Vero-76 cells (MOI 0.01). Briefly, Vero-76 cells were seeded in 96-well plates at a density of 3 × 10^4 cells/well and incubated in a growth medium in a 5% CO2 at 37°C overnight. Cell monolayers were then infected with 50 μL of the appropriate viral dilution in maintenance medium [D-MEM and MEM-Earl (Gibco, Thermo Fisher Scientific, MA United States) with L-glutamine (Gibco), 1 mM sodium pyruvate (Gibco), and 0.025 g/L kanamycin (Gibco), supplemented with 0.5% inactivated FBS (Harlan Sera-Lab, Loughborough, United Kingdom), respectively] to give an MOI of 0.01, without or with serial dilutions of test samples. After 6 (HCoV-OC43) and 4/5 (SARS-CoV-2) days of incubation at 37°C, the extent of cell viability was quantified using a tetrazolium-based colorimetric method, in which the reduction of 3-(4,5-dimethylthiazol-2-yl)-2,5-diphenyl-tetrazolium bromide (MTT) by mitochondrial dehydrogenases to a soluble colored formazan was measured using a spectrophotometer (Infinity 200, Tecan Austria GmbH, Austria) at 570 nm, as previously reported ([Sanna et al., 2020]).

[4] = tested on: SARS-CoV-2 clinical isolate 35245; assay: Plaque reduction assay, SARS-CoV-2 35245; assay type: cell-based; details: Severe acute respiratory syndrome coronavirus 2, read-out: Antiviral activity IC50 against coronaviruses, SARS-CoV-2 clinical isolate 35245, PR
[5] = Cytotoxicity (MTT test) in Vero-76 cells; assay type: cell-based, African Green Monkey (Cercopithecus aethiops); details: African green monkey
Description: as §1

HCoV-OC43 = assay: MTT test, HCoV-OC43 in Vero-76 cells; assay type: cell-based; details: Betacoronavirus 1, OC43, Vero 76, read-out: IC50 (HCoV-OC43)
SARS-COV-2 PV10734 = assay: Time-of-addition and cell pre-treatment assay in Vero cells; assay type: cell-based

Compound	CC50 at 72 h ([1]; Vero E6 cells) [µM]	IC50 (HCoV-229E) [µM]	IC50 [2] [µM]	IC50 [3] [µM]	IC50 [4] [µM]	CC50 at 72 h ([5]; Vero-76 cells) [µM]	IC50 (HCoV-OC43) [µM]	Inhibitory effect at the later stages of infection (SARS-COV-2 PV10734; addition at 4 and 6 hpi)	CC50 at 72 h [1] [µM]	CC50 at 72 h [5] [µM]	Antiviral activity after the SARS-CoV-2 entry process (SARS-COV-2 PV10734)	Antiviral activity, pre-treatment and early stages of infection (SARS-COV-2 PV10734)
CCN(CCO)CCCC(C)Nc1ccnc2cc(Cl)ccc12 (centres unmarked) [HDQ, Hydroxychloroquine, reference compound]	40 ± 5	1.6 ± 0.5	2.4 ± 0.7	11 ± 2.9	2.3 ± 0.7	40 ± 5	9.8 ± 1.7					
heparin								barely noticeable				
CCC(CC)COC(=O)[C@H](C)N[P@](=O)(OC[C@H]1O[C@@](C#N)(c2ccc3c(N)ncnn23)[C@H](O)[C@@H]1O)Oc1ccccc1 [RMD, Remdesivir]		6 ± 2	1.6 ± 0.3						> 100	> 100	exerted its antiviral activity	did not affect the early events of the viral life cycle
